The results in this text go back to patent publication US11976061B2, “Preparation of benzimidazolone derivatives as novel diacylglyceride O-acyltransferase 2 inhibitors” (Merck Sharp & Dohme LLC, priority 2020, dated 2024).

Broadly, the IC50 is the concentration needed to halve the response being measured.

In one experiment the target is T1, human DGAT2 (hDGAT2) (Homo sapiens, UniProt Q96PD7).
T1 construct: made in house; host or cells: Sf-9 insect cells (baculovirus), membrane fraction
T1 sequence (Q96PD7 1-388): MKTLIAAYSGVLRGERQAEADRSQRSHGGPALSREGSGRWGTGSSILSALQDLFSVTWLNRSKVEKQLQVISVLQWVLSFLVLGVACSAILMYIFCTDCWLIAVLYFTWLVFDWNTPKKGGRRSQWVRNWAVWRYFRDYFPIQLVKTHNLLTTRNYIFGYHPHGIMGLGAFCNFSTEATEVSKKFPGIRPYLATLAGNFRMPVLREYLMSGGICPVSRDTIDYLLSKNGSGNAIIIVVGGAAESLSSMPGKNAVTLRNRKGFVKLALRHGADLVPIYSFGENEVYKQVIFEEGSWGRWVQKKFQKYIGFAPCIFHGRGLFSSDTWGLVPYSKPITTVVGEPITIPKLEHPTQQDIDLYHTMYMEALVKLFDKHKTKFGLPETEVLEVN
The experiment can be described thus: DGAT2 Enzymatic Activity Assay. It is filed as biochemical. To be noted: membrane prep of Sf-9 cells expressing hDGAT2; 25 μM diolein, 5 μM 13C oleoyl-CoA; 13C18-triolein by LC/MS/MS; read-out: DGAT2 IC50. Put shortly:
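Membranes from Sf-9 cells expressing untagged human DGAT2 (8 ng/μL) incubated at rt in 100 mM Tris·Cl pH 7.0, 20 mM MgCl2, 5% ethanol with 25 μM diolein and 5 μM 13C oleoyl-CoA. 13C18-triolein product quantified by LC/MS/MS against 13C21-triolein internal standard; IC50 by 4-parameter fit.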
For `CCn1c(=O)n(-c2cccc(OC(F)F)c2)c2ccc(C(=O)NC3(C)CCS(=O)(=O)CC3)cc21` [Example 39, 1-(3-(Difluoromethoxy)phenyl)-3-ethyl-N-(4-methyl-1,1-dioxidotetrahydro-2H-thiopyran-4-yl)-2-oxo-2,3-dihydro-1H-benzo[d]imidazole-5-carboxamide], the IC50 amounted to 109 nM. `CC(n1c(=O)n(-c2cc(OC(F)(F)F)ccc2F)c2cc(F)c(C(=O)NC3(C)CCS(=O)(=O)CC3)cc21)C(C)(C)O` (single isomer, unassigned) [Example 70b, 6-fluoro-1-(2-fluoro-5-(trifluoromethoxy)phenyl)-3-(3-hydroxy-3-methylbutan-2-yl)-N-(4-methyl-1,1-dioxidotetrahydro-2H-thiopyran-4-yl)-2-oxo-2,3-dihydro-1H-benzo[d]imidazole-5-carboxamide]: the half-maximal inhibitory concentration (IC50) amounted to 30.4 nM. Still for that read-out and setting: the value for `CC(n1c(=O)n(-c2cc(OCC(F)F)ncc2F)c2cc(F)c(C(=O)NC3(C)CCS(=O)(=O)CC3)cc21)C(C)(C)O` (single isomer, unassigned) [Example 74b, 1-(2-(2,2-difluoroethoxy)-5-fluoropyridin-4-yl)-6-fluoro-3-(3-hydroxy-3-methylbutan-2-yl)-N-(4-methyl-1,1-dioxidotetrahydro-2H-thiopyran-4-yl)-2-oxo-2,3-dihydro-1H-benzo[d]imidazole-5-carboxamide] was 6.5 nM; that for `CC(C)n1c(=O)n(-c2cccc(OC(F)F)c2)c2ccc(C(=O)N[C@H]3CCCC(F)(F)[C@@H]3O)cc21` [Example 30, N-[(1S,2R)-3,3-difluoro-2-hydroxy-cyclohexyl]-1-[3-(difluoromethoxy)phenyl]-3-isopropyl-2-oxo-benzimidazole-5-carboxamide] was 31 nM; that for `CC(C)n1c(=O)n(-c2cccc(OC(F)F)c2)c2ccc(C(=O)N[C@H]3CCC[C@@H]3O)cc21` [Example 28, 1-[3-(difluoromethoxy)phenyl]-N-[(1S,2S)-2-hydroxycyclopentyl]-3-isopropyl-2-oxo-benzimidazole-5-carboxamide] was 779 nM.

With `CC(C)n1c(=O)n(-c2cccc(N(C)C)c2)c2ccc(C(=O)NC3(C)CCS(=O)(=O)CC3)cc21` [Example 54, 1-(3-(dimethylamino)phenyl)-3-isopropyl-N-(4-methyl-1,1-dioxidotetrahydro-2H-thiopyran-4-yl)-2-oxo-2,3-dihydro-1H-benzo[d]imidazole-5-carboxamide], the IC50 was determined as 1320 nM. `CC(n1c(=O)n(-c2cc(OCC(F)F)ncc2F)c2cc(F)c(C(=O)NC3(C)CCS(=O)(=O)CC3)cc21)C(C)(C)O` (single isomer, unassigned) [Example 74a, 1-(2-(2,2-difluoroethoxy)-5-fluoropyridin-4-yl)-6-fluoro-3-(3-hydroxy-3-methylbutan-2-yl)-N-(4-methyl-1,1-dioxidotetrahydro-2H-thiopyran-4-yl)-2-oxo-2,3-dihydro-1H-benzo[d]imidazole-5-carboxamide]: the IC50 worked out at 6.1 nM. Consider `CCOc1cc(-n2c(=O)n(C(C)C(C)(C)O)c3cc(C(=O)NC4(C)CCS(=O)(=O)CC4)ccc32)c(F)cn1` (single isomer, unassigned) [Example 69a, 1-(2-ethoxy-5-fluoropyridin-4-yl)-3-(3-hydroxy-3-methylbutan-2-yl)-N-(4-methyl-1,1-dioxidotetrahydro-2H-thiopyran-4-yl)-2-oxo-2,3-dihydro-1H-benzo[d]imidazole-5-carboxamide], for which the IC50 amounted to 9.7 nM. Same read-out and setting: the value for `CC(n1c(=O)n(-c2cc(OCC(F)F)ccc2F)c2cc(F)c(C(=O)NC3(C)CCS(=O)(=O)CC3)cc21)C(C)(C)O` (single isomer, unassigned) [Example 75b, 1-(5-(2,2-difluoroethoxy)-2-fluorophenyl)-6-fluoro-3-(3-hydroxy-3-methylbutan-2-yl)-N-(4-methyl-1,1-dioxidotetrahydro-2H-thiopyran-4-yl)-2-oxo-2,3-dihydro-1H-benzo[d]imidazole-5-carboxamide] was 2.4 nM. Turning to `CC(C)n1c(=O)n(-c2cccc(OC(F)F)c2)c2ccc(C(=O)N[C@H]3CCCC[C@@H]3O)cc21` [Example 35, 1-[3-(difluoromethoxy)phenyl]-N-[(1S,2S)-2-hydroxycyclohexyl]-3-isopropyl-2-oxo-benzimidazole-5-carboxamide], the IC50 came to 71 nM. For the compound `CCOc1cc(-n2c(=O)n(C(C)C(C)(C)O)c3cc(C(=O)NC4(C)CS(=O)(=O)C4)ccc32)c(F)cn1` (single isomer, unassigned) [Example 78b, 1-(2-ethoxy-5-fluoropyridin-4-yl)-3-(3-hydroxy-3-methylbutan-2-yl)-N-(3-methyl-1,1-dioxidothietan-3-yl)-2-oxo-2,3-dihydro-1H-benzo[d]imidazole-5-carboxamide], the IC50 came to 13 nM.

Regarding `CCC(C)n1c(=O)n(-c2cccc(OC(F)F)c2)c2ccc(C(=O)NC3(C)CS(=O)(=O)C3)cc21` (single isomer, unassigned) [Example 46b, 3-(sec-butyl)-1-(3-(difluoromethoxy)phenyl)-N-(3-methyl-1,1-dioxidothietan-3-yl)-2-oxo-2,3-dihydro-1H-benzo[d]imidazole-5-carboxamide], the IC50 worked out at 92 nM. In the case of `CCOc1cccc(-n2c(=O)n(C(C)C)c3cc(C(=O)NC4(C)CCS(=O)(=O)CC4)cnc32)c1` [Example 99, 3-(3-ethoxyphenyl)-1-isopropyl-N-(4-methyl-1,1-dioxo-thian-4-yl)-2-oxo-imidazo[4,5-b]pyridine-6-carboxamide], the IC50 came to 52 nM. The same measure, in the same setting: for `CC1(NC(=O)c2ccc3c(c2)n(C2CC2)c(=O)n3-c2cccc(OC(F)F)c2)CCS(=O)(=O)CC1` [Example 41, 3-Cyclopropyl-1-(3-(difluoromethoxy)phenyl)-N-(4-methyl-1,1-dioxidotetrahydro-2H-thiopyran-4-yl)-2-oxo-2,3-dihydro-1H-benzo[d]imidazole-5-carboxamide] the value was 211 nM.

Staying with this experiment, now noted: membrane prep of Sf-9 cells expressing hDGAT2; 25 μM diolein, 5 μM 13C oleoyl-CoA; 13C18-triolein by LC/MS/MS; read-out: Human DGAT2 IC50.
On to `CC(C)n1c(=O)n(-c2cccc(OC(F)F)c2)c2c(F)cc(C(=O)NC3(C)CS(=O)(=O)C3)cc21` [Example 108, 1-[3-(difluoromethoxy)phenyl]-7-fluoro-3-isopropyl-N-(3-methyl-1,1-dioxo-thietan-3-yl)-2-oxo-benzimidazole-5-carboxamide], for which the IC50 came out at 12 nM. For `CC(C)n1c(=O)n(-c2cccc(OC(F)F)c2)c2cnc(C(=O)NC3(C)CCS(=O)(=O)CC3)cc21` [Example 106, 3-(3-(difluoromethoxy)phenyl)-1-isopropyl-N-(4-methyl-1,1-dioxidotetrahydro-2H-thiopyran-4-yl)-2-oxo-2,3-dihydro-1H-imidazo[4,5-c]pyridine-6-carboxamide], the IC50 worked out at 69.8 nM. As to `CCOc1cc(-n2c(=O)n(C(C)C)c3cc(C(=O)NC4(C)CS(=O)(=O)C4)ccc32)c(F)cn1` [Example 16, 1-(2-ethoxy-5-fluoropyridin-4-yl)-3-isopropyl-N-(3-methyl-1,1-dioxidothietan-3-yl)-2-oxo-2,3-dihydro-1H-benzo[d]imidazole-5-carboxamide], the IC50 stood at 32 nM. In the case of `CC(C)n1c(=O)n(-c2cccc(OC3CC3)c2)c2ccc(C(=O)NC3(C)CS(=O)(=O)C3)cc21` [Example 14, 1-[3-(cyclopropoxy)phenyl]-3-isopropyl-N-(3-methyl-1,1-dioxo-thietan-3-yl)-2-oxo-benzimidazole-5-carboxamide], the half-inhibitory concentration (IC50) was 15 nM. Turning to `CC(C)n1c(=O)n(-c2cccc(OC(F)(F)C(F)F)c2)c2ncc(C(=O)NC3(C)CCS(=O)(=O)CC3)cc21` [Example 87, 1-isopropyl-N-(4-methyl-1,1-dioxo-thian-4-yl)-2-oxo-3-[3-(1,1,2,2-tetrafluoroethoxy)phenyl]imidazo[4,5-b]pyridine-6-carboxamide], the IC50 came out at 20 nM. Still for that read-out and setting: for `CC(C)n1c(=O)n(-c2cccc(OC(F)F)c2)c2cc(Cl)c(C(=O)NC3(C)CCS(=O)(=O)CC3)cc21` [Example 127] the value was 112 nM; for `CC(C(N)=O)n1c(=O)n(-c2cccc(OC(F)F)c2)c2ccc(C(=O)NC3(C)CCS(=O)(=O)CC3)cc21` (single isomer, unassigned) [EX-85b, 3-(1-amino-1-oxopropan-2-yl)-1-(3-(difluoromethoxy)phenyl)-N-(4-methyl-1,1-dioxidotetrahydro-2H-thiopyran-4-yl)-2-oxo-2,3-dihydro-1H-benzo[d]imidazole-5-carboxamide], 1750 nM.

Take `CC(C)n1c(=O)n(-c2cc(OC(F)F)ccc2F)c2ccc(C(=O)N[C@]3(C)CCS(=O)(=O)C3)cc21` [Example 82, (R)-1-(5-(Difluoromethoxy)-2-fluorophenyl)-3-isopropyl-N-(3-methyl-1,1-dioxidotetrahydrothiophen-3-yl)-2-oxo-2,3-dihydro-1H-benzo[d]imidazole-5-carboxamide]: the IC50 was found to be 5.7 nM.

In the case of `CC(C)n1c(=O)n(-c2cc(OC(F)F)ccn2)c2ccc(C(=O)NC3(C)CS(=O)(=O)C3)cc21` [Example 12, 1-[4-(difluoromethoxy)-2-pyridyl]-3-isopropyl-N-(3-methyl-1,1-dioxo-thietan-3-yl)-2-oxo-benzimidazole-5-carboxamide], the IC50 was 122 nM.
